Data reported in ChEMBL document CHEMBL4406807, “Discovery of 3,4,6-Trisubstituted Piperidine Derivatives as Orally Active, Low hERG Blocking Akt Inhibitors via Conformational Restriction and Structure-Based Design” (J Med Chem, 2019).

Tests used:
[1] = Microsomal stability in rat liver microsomes assessed as compound remaining at 100 ug/ml in presence of NADPH measured at 1.5 hrs by LC/MS analysis; format: ADME, Microsome; settings: read-out: Stability
[2] = Microsomal stability in dog liver microsomes assessed as compound remaining at 100 ug/ml in presence of NADPH measured at 1.5 hrs by LC/MS analysis; format: ADME, Canis lupus familiaris, Microsome; settings: read-out: Stability
[3] = Microsomal stability in monkey liver microsomes assessed as compound remaining at 100 ug/ml in presence of NADPH measured at 1.5 hrs by LC/MS analysis; format: ADME, Macaca mulatta, Microsome; settings: rhesus monkey, read-out: Stability
[4] = test system: LNCaP; assay: Antiproliferative activity against human LNCAP cells; format: functional, cell-based
[5] = target: RAC-beta serine/threonine-protein kinase (Homo sapiens, UniProt P31751); assay: Inhibition of human Akt2 by mobile shift assay
[6] = target: RAC-gamma serine/threonine-protein kinase (Homo sapiens, UniProt Q9Y243); assay: Inhibition of Akt3 (unknown origin) by mobile shift assay
[7] = target: Ribosomal protein S6 kinase alpha-1 (Homo sapiens, UniProt Q15418); assay: Inhibition of RSK1 (unknown origin) by mobility shift assay
[8] = target: Ribosomal protein S6 kinase beta-1 (Homo sapiens, UniProt P23443); assay: Inhibition of human P70S6K by mobility shift assay
[9] = Half-life in ICR mouse at 40 mg/kg, ig measured up to 48 hrs by LC-MS/MS analysis; format: ADME, organism-based; settings: in vivo, po
[10] = Clearance in ICR mouse at 40 mg/kg, ig measured up to 48 hrs by LC-MS/MS analysis; format: ADME, organism-based; settings: in vivo, po
[11] = AUC (0 to infinity) in ICR mouse at 40 mg/kg, ig measured up to 48 hrs by LC-MS/MS analysis; format: ADME, organism-based; parameters: dose 40 mg/kg, time infinity, route […]; settings: in vivo, po
[12] = Protein binding in mouse plasma at 300 ng/ml after 8 hrs by equilibrium dialysis; format: ADME, cell-free; settings: read-out: PPB (converted)
[13] = Stability in human plasma at 100 ug/ml after 1 hr by LC/MS analysis; format: ADME, cell-free; settings: read-out: Stability
[14] = Tmax in Sprague-Dawley rat at 40 mg/kg, ig measured up to 24 hrs by LC-MS/MS analysis; format: ADME, organism-based; settings: in vivo, po
[15] = Half-life in Sprague-Dawley rat at 40 mg/kg, ig measured up to 24 hrs by LC-MS/MS analysis; format: ADME, organism-based; settings: in vivo, po
[16] = Cmax in Sprague-Dawley rat at 40 mg/kg, ig measured up to 24 hrs by LC-MS/MS analysis; format: ADME, organism-based; parameters: dose 40 mg/kg, route […]; settings: in vivo, po
[17] = AUC (0 to infinity) in Sprague-Dawley rat at 40 mg/kg, ig measured up to 24 hrs by LC-MS/MS analysis; format: ADME, organism-based; parameters: dose 40 mg/kg, route […], time infinity; settings: in vivo, po
[18] = MRT (0 to t) in Sprague-Dawley rat at 40 mg/kg, ig measured up to 24 hrs by LC-MS/MS analysis; format: ADME, organism-based; settings: in vivo, po
[19] = MRT (0 to infinity) in Sprague-Dawley rat at 40 mg/kg, ig measured up to 24 hrs by LC-MS/MS analysis; format: ADME, organism-based; settings: in vivo, po
[20] = Volume of distribution in Sprague-Dawley rat at 40 mg/kg, ig measured up to 24 hrs by LC-MS/MS analysis; format: ADME, organism-based; settings: in vivo, po
[21] = test system: SK-OV-3; assay: Induction of apoptosis in human SKOV3 cells at 0.4 uM by FACS based flow cytometric analysis (reference value: 7.63%); format: functional
[22] = test system: SK-OV-3; assay: Induction of apoptosis in human SKOV3 cells at 2 uM by FACS based flow cytometric analysis (reference value: 7.63%); format: functional
[23] = Toxicity in ICR mouse assessed as effect on serum hematology at 80 to 160 mg/kg, ig; format: organism-based; settings: in vivo, po
[24] = Toxicity in ICR mouse assessed as induction of intestinal hemorrhage at 80 to 160 mg/kg, ig; format: organism-based; settings: in vivo, po
[25] = test system: SK-OV-3; assay: Antitumor activity against human SKOV3 cells xenografted in BALB/c nude mouse assessed as tumor growth inhibition at 40 mg/kg, po BID for 21 days; format: functional; settings: SK-OV-3, po, 504 h, read-out: TGI
[26] = test system: SK-OV-3; assay: Antitumor activity against human SKOV3 cells xenografted in BALB/c nude mouse assessed as tumor growth inhibition at 80 mg/kg, po administered once daily for 21 days relative to control; format: functional; settings: SK-OV-3, po, 504 h, read-out: TGI
[27] = test system: SK-OV-3; assay: Antitumor activity against human SKOV3 cells xenografted in BALB/c nude mouse assessed as tumor growth inhibition at 60 mg/kg, po administered once daily for 21 days relative to control; format: functional; settings: SK-OV-3, po, 504 h, read-out: TGI
[28] = Toxicity in BALB/c nude mouse xenografted with human SKOV3 cells assessed as reduction in mouse survival at 40 mg/kg, po BID for 21 days; format: organism-based; settings: in vivo, 504 h
[29] = Toxicity in BALB/c nude mouse xenografted with human SKOV3 cells assessed as reduction in mouse survival at 60 to 80 mg/kg, po administered once daily for 21 days; format: organism-based; settings: in vivo, 504 h
[30] = target: Cystic fibrosis transmembrane conductance regulator (Homo sapiens, UniProt P13569); assay: Inhibition of CFTR (unknown origin)
[31] = target: Sodium channel protein type 9 subunit alpha (Homo sapiens, UniProt Q15858); assay: Inhibition of Nav1.7 (unknown origin)
[32] = target: ATP-sensitive inward rectifier potassium channel 1 (Homo sapiens, UniProt P48048); assay: Inhibition of Kir1.1 (unknown origin) at 3 uM relative to control
[33] = target: Potassium voltage-gated channel subfamily A member 7 (Homo sapiens, UniProt Q96RP8); assay: Inhibition of Kv1.7 (unknown origin) at 3 uM relative to control
[34] = target: Potassium/sodium hyperpolarization-activated cyclic nucleotide-gated channel 2 (Homo sapiens, UniProt Q9UL51); assay: Inhibition of HCN2 (unknown origin) at 3 uM relative to control
[35] = target: Potassium/sodium hyperpolarization-activated cyclic nucleotide-gated channel 4 (Homo sapiens, UniProt Q9Y3Q4); assay: Inhibition of HCN4 (unknown origin) at 3 uM relative to control
[36] = Toxicity in BALB/c nude mouse xenografted with human SKOV3 cells assessed as effect on body weight at 60 to 80 mg/kg, po administered once daily for 21 days; format: organism-based; settings: in vivo, 504 h

Chain of RAC-gamma serine/threonine-protein kinase (Q9Y243 whole entry): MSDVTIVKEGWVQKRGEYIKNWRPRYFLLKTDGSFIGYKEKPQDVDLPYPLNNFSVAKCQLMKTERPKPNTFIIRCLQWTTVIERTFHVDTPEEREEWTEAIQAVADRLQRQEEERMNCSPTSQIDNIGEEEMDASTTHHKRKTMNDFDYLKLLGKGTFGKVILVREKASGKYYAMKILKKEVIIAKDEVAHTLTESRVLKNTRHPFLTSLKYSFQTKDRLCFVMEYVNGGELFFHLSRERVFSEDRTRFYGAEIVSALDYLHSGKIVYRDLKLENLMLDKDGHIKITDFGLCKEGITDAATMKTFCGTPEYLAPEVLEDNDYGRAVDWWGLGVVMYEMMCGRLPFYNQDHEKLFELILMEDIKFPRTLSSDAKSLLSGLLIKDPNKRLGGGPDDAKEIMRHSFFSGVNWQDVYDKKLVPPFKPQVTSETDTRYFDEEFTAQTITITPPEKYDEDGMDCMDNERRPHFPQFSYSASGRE
Chain of Potassium voltage-gated channel subfamily A member 7 (Q96RP8 whole entry): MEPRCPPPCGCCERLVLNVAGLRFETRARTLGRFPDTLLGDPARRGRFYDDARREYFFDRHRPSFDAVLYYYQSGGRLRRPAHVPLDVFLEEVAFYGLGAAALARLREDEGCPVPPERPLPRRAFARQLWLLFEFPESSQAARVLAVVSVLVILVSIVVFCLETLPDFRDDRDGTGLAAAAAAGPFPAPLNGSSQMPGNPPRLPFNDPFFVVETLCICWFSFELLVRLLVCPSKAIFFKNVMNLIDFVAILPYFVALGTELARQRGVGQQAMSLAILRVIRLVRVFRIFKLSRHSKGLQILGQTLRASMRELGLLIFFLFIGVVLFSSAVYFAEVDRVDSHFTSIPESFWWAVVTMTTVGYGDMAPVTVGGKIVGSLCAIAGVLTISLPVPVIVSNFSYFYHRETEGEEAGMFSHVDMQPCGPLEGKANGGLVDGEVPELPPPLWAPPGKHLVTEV
Chain of Sodium channel protein type 9 subunit alpha (Q15858 whole entry): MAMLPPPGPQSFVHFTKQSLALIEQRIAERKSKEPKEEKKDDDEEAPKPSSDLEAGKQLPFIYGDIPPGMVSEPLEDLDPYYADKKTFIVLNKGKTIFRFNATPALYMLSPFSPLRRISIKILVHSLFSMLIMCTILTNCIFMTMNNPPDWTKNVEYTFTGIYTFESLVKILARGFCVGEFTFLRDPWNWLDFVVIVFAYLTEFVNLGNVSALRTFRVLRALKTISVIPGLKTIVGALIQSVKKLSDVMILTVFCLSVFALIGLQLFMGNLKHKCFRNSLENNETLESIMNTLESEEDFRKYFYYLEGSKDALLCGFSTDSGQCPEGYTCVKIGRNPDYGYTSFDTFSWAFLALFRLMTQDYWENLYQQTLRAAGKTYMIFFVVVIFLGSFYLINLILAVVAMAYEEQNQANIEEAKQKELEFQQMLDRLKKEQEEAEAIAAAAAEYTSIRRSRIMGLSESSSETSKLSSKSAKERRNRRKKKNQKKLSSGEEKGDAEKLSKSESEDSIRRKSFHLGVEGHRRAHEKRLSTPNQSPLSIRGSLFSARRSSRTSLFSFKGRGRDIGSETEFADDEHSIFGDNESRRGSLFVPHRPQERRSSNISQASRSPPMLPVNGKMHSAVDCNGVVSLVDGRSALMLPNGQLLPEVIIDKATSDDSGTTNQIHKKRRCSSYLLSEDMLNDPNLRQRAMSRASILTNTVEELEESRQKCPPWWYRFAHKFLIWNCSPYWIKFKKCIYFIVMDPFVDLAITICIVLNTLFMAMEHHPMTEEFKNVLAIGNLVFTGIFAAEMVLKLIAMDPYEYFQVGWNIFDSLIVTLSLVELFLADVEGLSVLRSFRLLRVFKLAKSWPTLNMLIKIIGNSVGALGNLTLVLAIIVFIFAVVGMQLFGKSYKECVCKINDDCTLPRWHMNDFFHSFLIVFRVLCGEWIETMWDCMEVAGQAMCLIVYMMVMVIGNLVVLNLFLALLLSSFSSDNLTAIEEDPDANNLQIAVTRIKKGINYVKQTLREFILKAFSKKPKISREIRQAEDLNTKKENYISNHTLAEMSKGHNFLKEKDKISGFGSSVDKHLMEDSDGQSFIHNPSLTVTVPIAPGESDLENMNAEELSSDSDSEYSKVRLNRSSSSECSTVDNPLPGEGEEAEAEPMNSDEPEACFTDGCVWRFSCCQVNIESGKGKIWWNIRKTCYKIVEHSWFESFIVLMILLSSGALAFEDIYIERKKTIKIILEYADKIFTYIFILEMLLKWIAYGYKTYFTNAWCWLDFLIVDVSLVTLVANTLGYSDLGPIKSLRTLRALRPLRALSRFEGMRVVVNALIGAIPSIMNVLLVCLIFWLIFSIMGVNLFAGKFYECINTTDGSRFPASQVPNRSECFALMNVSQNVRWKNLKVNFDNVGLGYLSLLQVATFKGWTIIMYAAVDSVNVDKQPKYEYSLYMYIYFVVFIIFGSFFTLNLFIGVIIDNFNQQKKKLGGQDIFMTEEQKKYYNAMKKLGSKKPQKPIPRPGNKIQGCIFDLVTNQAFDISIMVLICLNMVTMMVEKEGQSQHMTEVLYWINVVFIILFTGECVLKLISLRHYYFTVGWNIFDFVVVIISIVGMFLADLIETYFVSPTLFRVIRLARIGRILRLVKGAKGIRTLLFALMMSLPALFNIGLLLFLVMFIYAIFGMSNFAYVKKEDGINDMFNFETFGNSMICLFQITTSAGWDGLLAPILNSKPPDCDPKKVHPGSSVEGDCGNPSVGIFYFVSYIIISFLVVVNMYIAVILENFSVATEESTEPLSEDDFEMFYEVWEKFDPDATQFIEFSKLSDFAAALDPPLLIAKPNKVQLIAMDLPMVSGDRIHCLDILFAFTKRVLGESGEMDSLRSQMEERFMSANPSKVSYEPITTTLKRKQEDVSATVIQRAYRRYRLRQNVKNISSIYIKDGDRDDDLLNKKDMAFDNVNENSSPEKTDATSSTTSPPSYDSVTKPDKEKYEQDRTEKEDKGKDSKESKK
Chain of ATP-sensitive inward rectifier potassium channel 1 (P48048 whole entry): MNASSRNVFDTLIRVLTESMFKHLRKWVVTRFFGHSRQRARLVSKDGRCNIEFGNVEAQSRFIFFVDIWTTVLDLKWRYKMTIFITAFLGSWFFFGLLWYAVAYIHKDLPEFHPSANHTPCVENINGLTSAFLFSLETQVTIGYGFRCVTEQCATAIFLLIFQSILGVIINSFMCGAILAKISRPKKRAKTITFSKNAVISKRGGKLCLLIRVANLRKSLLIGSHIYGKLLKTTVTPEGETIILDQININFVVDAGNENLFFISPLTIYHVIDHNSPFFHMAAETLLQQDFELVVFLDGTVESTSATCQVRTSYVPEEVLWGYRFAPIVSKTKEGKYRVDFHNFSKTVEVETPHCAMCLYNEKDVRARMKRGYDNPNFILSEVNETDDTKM
Chain of Potassium/sodium hyperpolarization-activated cyclic nucleotide-gated channel 4 (Q9Y3Q4 whole entry): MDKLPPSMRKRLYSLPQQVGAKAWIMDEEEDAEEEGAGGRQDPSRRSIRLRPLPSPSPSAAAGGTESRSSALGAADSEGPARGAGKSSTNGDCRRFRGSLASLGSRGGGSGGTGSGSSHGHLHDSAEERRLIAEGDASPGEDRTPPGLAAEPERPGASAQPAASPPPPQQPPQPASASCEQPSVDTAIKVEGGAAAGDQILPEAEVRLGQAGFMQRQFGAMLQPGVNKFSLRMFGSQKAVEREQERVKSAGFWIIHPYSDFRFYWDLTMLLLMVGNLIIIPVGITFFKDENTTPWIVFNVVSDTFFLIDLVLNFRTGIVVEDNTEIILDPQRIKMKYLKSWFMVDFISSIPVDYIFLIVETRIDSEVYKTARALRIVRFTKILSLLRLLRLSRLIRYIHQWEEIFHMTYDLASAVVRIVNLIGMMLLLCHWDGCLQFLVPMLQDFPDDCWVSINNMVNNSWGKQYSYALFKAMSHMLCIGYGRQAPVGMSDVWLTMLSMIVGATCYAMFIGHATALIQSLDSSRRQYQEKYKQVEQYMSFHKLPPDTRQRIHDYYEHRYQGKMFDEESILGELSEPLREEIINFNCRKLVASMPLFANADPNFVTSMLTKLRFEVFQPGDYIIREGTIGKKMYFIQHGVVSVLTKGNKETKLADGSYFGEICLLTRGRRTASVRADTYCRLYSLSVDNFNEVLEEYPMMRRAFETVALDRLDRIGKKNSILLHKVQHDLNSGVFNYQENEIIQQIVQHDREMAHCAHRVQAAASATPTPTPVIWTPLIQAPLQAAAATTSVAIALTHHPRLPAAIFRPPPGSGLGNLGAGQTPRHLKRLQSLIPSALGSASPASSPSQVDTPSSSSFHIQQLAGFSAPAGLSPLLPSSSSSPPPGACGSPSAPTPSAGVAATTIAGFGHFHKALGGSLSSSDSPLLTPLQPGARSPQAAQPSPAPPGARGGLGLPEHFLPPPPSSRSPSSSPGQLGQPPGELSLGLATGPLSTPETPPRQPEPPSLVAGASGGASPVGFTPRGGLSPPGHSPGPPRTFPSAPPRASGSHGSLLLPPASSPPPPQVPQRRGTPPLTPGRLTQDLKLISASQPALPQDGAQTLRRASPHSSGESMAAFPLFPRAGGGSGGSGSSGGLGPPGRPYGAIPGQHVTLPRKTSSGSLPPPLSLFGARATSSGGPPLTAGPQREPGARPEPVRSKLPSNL
Chain of Ribosomal protein S6 kinase beta-1 (P23443 whole entry): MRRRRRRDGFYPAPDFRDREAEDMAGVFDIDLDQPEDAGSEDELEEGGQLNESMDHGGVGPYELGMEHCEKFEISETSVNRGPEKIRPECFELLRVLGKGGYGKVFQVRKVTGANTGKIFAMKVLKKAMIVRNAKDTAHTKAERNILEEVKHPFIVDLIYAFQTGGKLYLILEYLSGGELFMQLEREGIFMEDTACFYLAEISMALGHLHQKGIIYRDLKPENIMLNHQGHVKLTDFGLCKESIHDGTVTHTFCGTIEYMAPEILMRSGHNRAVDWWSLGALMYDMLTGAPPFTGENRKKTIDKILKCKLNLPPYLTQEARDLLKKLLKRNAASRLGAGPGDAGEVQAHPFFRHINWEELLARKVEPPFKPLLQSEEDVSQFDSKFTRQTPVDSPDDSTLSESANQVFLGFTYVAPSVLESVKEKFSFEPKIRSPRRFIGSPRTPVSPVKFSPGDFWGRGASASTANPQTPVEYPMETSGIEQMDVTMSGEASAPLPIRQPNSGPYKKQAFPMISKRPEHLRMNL

`CNC(=O)C[C@@H]1C[C@@H](c2ccc(F)c(F)c2)[C@H](NC(=O)c2cc(-c3c(Cl)cnn3C)c(Cl)o2)CN1` showed a remaining at 1.5 h, 100 ug/ml [1] of 89%, a remaining at 1.5 h, 100 ug/ml [2] of 96% and a remaining at 1.5 h, 100 ug/ml [3] of 84%. For the same molecule, the IC50 [4] was 50 nM, the IC50 [5] was 1.2 nM and the IC50 [6] was 1.7 nM. The IC50 [7] was 131 nM, the IC50 [8] was 8.9 nM and the half-life [9] was 3.3 h. It also gave a CL/F [10] of 31.7 mL/min/kg, an AUC(0-inf) [11] of 21200 ng·h/mL and a fraction unbound at 8 h, 300 ng/ml [12] of 0.07. For the same molecule, the remaining at 1 h, 100 ug/ml [13] was over 99%, the Tmax [14] was 1.8 h and the half-life [15] was 6.4 h. It also gave a Cmax [16] of 407 ng/mL, an AUC(0-inf) [17] of 3090 ng·h/mL and an MRT last at 24 h [18] of 5.8 h. It also gave an MRT inf [19] of 11.4 h, a Vd [20] of 147.2 L/kg and an Activity [21] of 39.88%. For the same molecule, the Activity [22] was 64.22%, the Activity [23] was “Non-Toxic” and the Activity [24] was “Toxic”. The inhibition in vivo at 40 mg/kg [25] was 82.5%, the inhibition in vivo at 80 mg/kg [26] was 90% and the inhibition in vivo at 60 mg/kg [27] was 79.2%. For the same molecule, the Activity [28] was “Non-Toxic”, the Activity [29] was “Non-Toxic” and the “inhibition (INH)” value [30] was “Not Active”. The “inhibition (INH)” value [31] was “Not Active”, the “inhibition (INH)” value [32] was “Not Active” and the “inhibition (INH)” value [33] was “Not Active”. The “inhibition (INH)” value [34] was “Not Active”, the “inhibition (INH)” value [35] was “Not Active” and the Activity [36] was “Non-Toxic”.
